# According to patent US20240197761A1, “FUCOSYLATION AND IMMUNE MODULATION IN CANCER” (H. LEE MOFFITT CANCER CENTER AND RESEARCH INSTITUTE, INC., priority 2021, published 2024):
# Legend:
# 4T1 mouse breast tumor = 4T1 mouse breast tumor growth ± L-fucose supplemented water; assay type: in vivo, Balb/C mice; conditions: 500 mM L-fucose supplemented water ad libitum from 100 mm^3 (FIG. 3H)
# Protocol: To determine which immune cell populations were affected by L-fucose, another mouse melanoma model treated with control or L-fucose-supplemented water was used. […] Rather than being immunosuppressive, these cells elicit immunostimulatory activity (at this point in terms of augmenting T cell activation) (FIG. 3). […] In fact, upon reaching 100 mm^3, 4T1 mouse breast tumor-bearing Balb/C mice were provided with control or 500 mM L-fucose supplemented water ad libitum and L-fucose suppressed tumor growth by 50% (FIG. 3H). Moreover, the number of TILs increased following administration of L-fucose (FIG. 3C). We next looked at the specific populations of cells proliferating in TILs following L-fucose administration. We saw a 3.1 fold increase in MDSC cell and CD4 T cells (FIG. 3D). To verify that the increases in the TIL populations were attributed to fucosylation, we treated mice with L-fucose or 2FF (fucosylation inhibitor) and observed the change in MDSC. We observed that L-fucose increased MDSC populations, but 2FF decreased MDSC (FIG. 3E). […] This shift is depicted in FIG. 4.
# SW1 tumors [1] = experiment: NSG melanoma model: SW1 tumor growth in immunodeficient mice; assay type: in vivo
# Text: All animals were housed at the Vincent A. Stabile Research building animal facility at H. Lee Moffitt Cancer Center & Research Institute, which is fully accredited by the Association for Assessment and Accreditation of Laboratory Animal Care International (AAALAC, #434), and are managed in accordance with the Guide for the Care and Use of Laboratory Animals (“The Guide”), the Animal Welfare Regulations Title 9 Code of Federal Regulations Subchapter A, “Animal Welfare”, Parts 1-3 (AWR), the Public Health Service Policy on Humane Care and Use of Laboratory Animals (PHS Policy), and by the USF Institutional Animal Care and Use Committee's Principles and Procedures of Animal Care and Use (IACUC Principles). The experiments and protocols detailed in this study received institutional approval by the Moffitt IACUC (RIS00001625). Four-to-six-week-old female C3H/HeN and male C57BL6 mice were purchased from Charles Rivers Laboratories for the indicated experiments. Four-to-six-week-old male NSG mice from the Lau laboratory breeding colony were used for the indicated experiments. Power calculations were used to determine mouse cohort sizes to detect significant changes in tumor sizes. […] Mouse tumor volumes were measured using length, width and depth divided by 2. […]
# SW1 tumors [2] = experiment: Immunodepletion mouse model (CD4+ or CD8+ T cell depletion), SW1; assay type: in vivo, C3H/HeN mice
# Text: (§1) Total TILs were gated first to single cells (based on forward scatter height vs width, followed by side scatter height vs. width). Live cells were gated from the Zombie negative population from the population above. TILs were gated based on splenocyte size from a control spleen. Individual immune subpopulations were sub-gated from the total TIL population using the following staining criteria: CD3+ for CD3+ T cells; CD3+/CD4+/CD8− for CD4+T cells; CD3+/CD4−/CD8+ for CD8+ T cells, CD11c+/CD11b+ for DCs; either NK1.1 (for C57/BL6 mice) or DX5 (for C3H/HeJ) for NK cells; CD11b+/GR1+ for MDSC-like cells; and F4/80+ for macrophages. Single-cell suspensions from tumor and spleen tissue were stained with Live/Dead Zombie NIR (Biolegend, (San Diego, CA)) at 1:1,000 in PBS for 20 min. Cell suspensions were spun down and stained with the following with antibodies at 0.5 μg/ml per antibody: APC anti-mouse CD3, Pacific Blue anti-mouse CD4, BV785 anti-mouse CD8, PerCP anti-mouse CD25, FITC anti-mouse F4/80, PeCy7 anti-mouse CD11c, PE anti-mouse NK1.1 or PE anti-mouse DX5, and PerCP-Cy5.5 anti-mouse CD11 b. After staining, the cells were washed and fixed (2% formaldehyde), followed by another wash and flow cytometric analysis. The compensation controls were prepared using 0.5 μg/mL of each antibody with UltraComp eBeads, (ThermoFisher Scientific (Waltham, MA)). All samples were subject to flow cytometric profiling using a LSR Flow Cytometer (BD Biosciences (San Jose, CA)) and analysis as indicated using FlowJo software (BD Biosciences (San Jose, CA)).
# All animals were housed at the Vincent A. Stabile Research building animal facility at H. Lee Moffitt Cancer Center & Research Institute, which is fully accredited by the Association for Assessment and Accreditation of Laboratory Animal Care International (AAALAC, #434), and are managed in accordance with the Guide for the Care and Use of Laboratory Animals (“The Guide”), the Animal Welfare Regulations Title 9 Code of Federal Regulations Subchapter A, “Animal Welfare”, Parts 1-3 (AWR), the Public Health Service Policy on Humane Care and Use of Laboratory Animals (PHS Policy), and by the USF Institutional Animal Care and Use Committee's Principles and Procedures of Animal Care and Use (IACUC Principles). The experiments and protocols detailed in this study received institutional approval by the Moffitt IACUC (RIS00001625). Four-to-six-week-old female C3H/HeN and male C57BL6 mice were purchased from Charles Rivers Laboratories for the indicated experiments. Four-to-six-week-old male NSG mice from the Lau laboratory breeding colony were used for the indicated experiments. […] Mouse tumor volumes were measured using length, width and depth divided by 2. […]
# mouse splenic MDSC = experiment: Splenic MDSC proliferation with L-fuc or 2FF; assay type: cell-based; conditions: FIG. 3E
# SM1 tumors = experiment: Immunodepletion mouse model (CD4+ or CD8+ T cell depletion), SM1; assay type: in vivo, C57BL6 mice; conditions: CD4+ but not CD8+T cell depletion
# Text: as §1, with “All samples were subject to flow cytometric profiling using a LSR Flow Cytometer (BD Biosciences (San Jose, CA)) and analysis as indicated using FlowJo software (BD Biosciences (San Jose, CA)).” left out
# [3] = test system: SW1 tumors (shNT, shH2K1, shEB1, EB1 WT or N46G); experiment: H2K1/EB1 knockdown and glyco-fucomutant EB1 reconstitution mouse model; assay type: in vivo, C3H/HeN mice
# Text: All animals were housed at the Vincent A. Stabile Research building animal facility at H. Lee Moffitt Cancer Center & Research Institute, which is fully accredited by the Association for Assessment and Accreditation of Laboratory Animal Care International (AAALAC, #434), and are managed in accordance with the Guide for the Care and Use of Laboratory Animals (“The Guide”), the Animal Welfare Regulations Title 9 Code of Federal Regulations Subchapter A, “Animal Welfare”, Parts 1-3 (AWR), the Public Health Service Policy on Humane Care and Use of Laboratory Animals (PHS Policy), and by the USF Institutional Animal Care and Use Committee's Principles and Procedures of Animal Care and Use (IACUC Principles). The experiments and protocols detailed in this study received institutional approval by the Moffitt IACUC (RIS00001625). Four-to-six-week-old female C3H/HeN and male C57BL6 mice were purchased from Charles Rivers Laboratories for the indicated experiments. Four-to-six-week-old male NSG mice from the Lau laboratory breeding colony were used for the indicated experiments. Power calculations were used to determine mouse cohort sizes to detect significant changes in tumor sizes. In general, 10 mice per indicated cohort to accommodate for incidental loss of mice due to issues beyond our control (e.g., incidental tumor ulceration that required exclusion from the study). Mouse tumor volumes were measured using length, width and depth divided by 2. At each experimental endpoint, mice were humanely euthanized using CO2 inhalation in accordance to the American Veterinary Medical Association guidelines. […] For all mouse models, 1×10^6 melanoma cells were injected subcutaneously in the right hind flanks of each mouse. Between 7-14 days, when the tumor volumes reached ˜150 mm^3, the mice were either supplemented with or without 100 mM L-fucose (Biosynth (Oak Terrace, IL)) via drinking water, which was provided ad libitum. When the tumors reached ˜2 cm^3, the animals were sacrificed, and the tumors either processed for flow cytometric profiling or for histological analysis as indicated. […]
smiles,measurement,setting,value
C[C@H](O)[C@@H](O)[C@@H](O)[C@H](O)C=O [L-fucose],suppression of tumor growth,4T1 mouse breast tumor,50%
same,SW1 tumor growth,SW1 tumors [1],did not reduce
same,reduction of tumor growth,SW1 tumors [2]; CD4+T cell depletion,completely abrogated
same,"L-fuc-induced increases in total itICs (incl. NK, DC, CD8+T cells)",SW1 tumors [2]; CD4+T cell-depletion,blocked
same,reduction of tumor growth,SW1 tumors [2]; CD8+T cell-depleted mice,> 50%
same,reduction of tumor growth,SW1 tumors [2]; control (PBS-injected) mice,> 50%
same,MDSC proliferation / MDSC populations,mouse splenic MDSC,increased
same,MDSC proliferation / MDSC populations,mouse splenic MDSC; listed as L-fuc,increases
same,L-fuc-triggered tumor suppression and increases in total itICs,SM1 tumors,abrogated
same,L-fuc-triggered tumor suppression and induction of total itICs,[3]; EB1 knockdown,completely abolished
same,control (shNT) tumor growth,[3]; non-targeting shRNA SW1 tumors,impaired
same,L-fuc-induced TIL and tumor growth suppression after EB1 knockdown and reconstitution,[3]; shEB1 tumors reconstituted with EB1 WT or N46G,rescued by reconstitution with only WT but not glyco-fucomutant EB1
